Like-named read-outs stand apart in the source and are kept apart here.
Legend:
[1] = test system: Pectobacterium atrosepticum 1043; assay: Agar-well diffusion, bactericidal activity; format: cell-based; conditions: Pectobacterium atrosepticum, 1043, 2 mM/L
Summary of the method: (§1)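 Bacteria spread on agar (BP medium; GYCa for X. campestris; pH 7.2–7.4) with 6-mm wells, each receiving 150 μL compound solution. Cultures grown at 28 °C; growth-inhibition zone width measured after 36–40 h.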

[2] = test system: Micrococcus luteus B-109; assay: Agar-well diffusion, bactericidal activity; format: cell-based; conditions: Micrococcus luteus
Summary of the method: as §1

[3] = test system: Pectobacterium carotovorum subsp. carotovorum MI; assay: Agar-well diffusion, bactericidal activity; format: cell-based; conditions: Pectobacterium carotovorum, 2 mM/L
Summary of the method: as §1

[4] = test system: Pseudomonas fluorescens EL-2.1; assay: Agar-well diffusion, bactericidal activity; format: cell-based; conditions: Pseudomonas fluorescens, EL2.1, 2 mM/L
Summary of the method: as §1

[5] = test system: Fusarium oxysporum IBPPM 543; assay: Mycelial radial growth inhibition; format: cell-based; conditions: Fusarium oxysporum; for inhibition of growth at 1 µM: 1 nmol/mL; for inhibition of growth at 1 µM / inhibition of growth at 5 µM / inhibition of growth at 20 µM / inhibition of growth at 40 µM: read-out: Inhibition value, I (%); for inhibition of growth at 5 µM: 5 nmol/mL; for inhibition of growth at 20 µM: 20 nmol/mL; for inhibition of growth at 40 µM: 40 nmol/mL
Summary of the method: (§2)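 Compounds mixed into molten GPY agar at various concentrations; centre inoculated with a 5-mm mycelial plug from 10-day cultures and incubated at 27 °C. Colony diameter compared with untreated control until control plate was covered (usually 12 days); ≥4 replicates in two experiments.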

[6] = test system: Phytophthora cactorum VKM F-985; assay: Mycelial radial growth inhibition; format: cell-based; conditions: Phytophthora cactorum; for inhibition of growth at 1 µM: 1 nmol/mL; for inhibition of growth at 1 µM / inhibition of growth at 5 µM / inhibition of growth at 15 µM / inhibition of growth / inhibition of growth at 40 µM: read-out: Inhibition value, I (%); for inhibition of growth at 5 µM: 5 nmol/mL; for inhibition of growth at 15 µM: 15 nmol/mL; for inhibition of growth: 27 nmol/mL; for inhibition of growth at 40 µM: 40 nmol/mL
Summary of the method: as §2

[7] = test system: Xanthomonas campestris B-610; assay: Agar-well diffusion, bactericidal activity; format: cell-based; conditions: Xanthomonas campestris
Summary of the method: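 Agar-well diffusion on GYCa agar (pH 7.2–7.4) seeded with bacterial suspension; 150 μL compound solution placed in 6-mm wells. Inhibition zone width measured after 36–40 h incubation.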

[8] = test system: five representative phytopathogens; assay: Agar-well diffusion, bactericidal activity over the panel of phytopathogens; format: cell-based
Summary of the method: as §1

[9] = Table S3, read-out: Inhibition zone width (mm), not less
[10] = IBPPM543, 72 h, age of the fungus 3 days
[11] = IBPPM543, 120 h, age of the fungus 5 days
[12] = IBPPM543, 168 h, age of the fungus 7 days
[13] = IBPPM543, 216 h, age of the fungus 9 days
[14] = 120 h, age of the fungus 5 days
[15] = 168 h, age of the fungus 7 days
[16] = 216 h, age of the fungus 9 days

**Q.** Which zone of inhibition at 2000 µM ([1]; average of 3 experiments, read-out: width of the inhibition zone (mm), P. atrosepticum) does the source give for `O=C(C[n+]1ccccc1)NN=C1C(=O)N(Cc2c(F)cccc2Cl)c2ccc(F)cc21.[Cl-]` [Compound 5b, 1-(2-(2-(5-Fluoro-1-(6-chloro-2-fluorobenzyl)-2-oxoindolin-3-ylidene)hydrazinyl)-2-oxoethyl)pyridin-1-ium chloride] here?
**A.** 4 mm

**Q.** And the zone of inhibition at 2000 µM [1, 9]?
**A.** ≥ 4 mm

**Q.** And the zone of inhibition at 2000 µM ([2]; B109, 2 mM/L, average of 3 experiments, read-out: width of the inhibition zone (mm), M. luteus)?
**A.** 4 mm

**Q.** What about the zone of inhibition at 2000 µM ([2]; B109, Table S3, 2 mM/L, read-out: Inhibition zone width (mm), not less) of the same compound?
**A.** ≥ 4 mm

**Q.** What about the zone of inhibition at 2000 µM ([3]; average of 3 experiments, read-out: width of the inhibition zone (mm), P. carotovorum subsp. carotovorum) of the same compound?
**A.** 3 mm

**Q.** And the zone of inhibition at 2000 µM [3, 9]?
**A.** ≥ 3 mm

**Q.** What about the zone of inhibition at 2000 µM ([4]; average of 3 experiments, read-out: width of the inhibition zone (mm), Ps. fluorescens) of the same compound?
**A.** 2.5 mm

**Q.** What about the zone of inhibition at 2000 µM [4, 9] of the same compound?
**A.** ≥ 2 mm

**Q.** And the inhibition of growth at 1 µM [5, 10]?
**A.** 9%

**Q.** And the inhibition of growth at 5 µM [5, 10]?
**A.** 33%

**Q.** What about the inhibition of growth at 20 µM [5, 10] of the same compound?
**A.** 41%

**Q.** And the inhibition of growth at 40 µM [5, 10]?
**A.** 53%

**Q.** What about the EC50 ([5]; IBPPM543, 120 h, day 5, read-out: EC50, µg/mL at Day 5, F. oxysporum) of the same compound?
**A.** 14.8 µg/mL

**Q.** And the inhibition of growth at 1 µM [5, 11]?
**A.** 10%

**Q.** What about the inhibition of growth at 5 µM [5, 11] of the same compound?
**A.** 34%

**Q.** What about the inhibition of growth at 20 µM [5, 11] of the same compound?
**A.** 42%

**Q.** What about the inhibition of growth at 40 µM [5, 11] of the same compound?
**A.** 56%

**Q.** What about the inhibition of growth at 1 µM [5, 12] of the same compound?
**A.** 9%

**Q.** What about the inhibition of growth at 5 µM [5, 12] of the same compound?
**A.** 25%

**Q.** What about the inhibition of growth at 20 µM [5, 12] of the same compound?
**A.** 34%

**Q.** What about the inhibition of growth at 40 µM [5, 12] of the same compound?
**A.** 40%

**Q.** And the inhibition of growth at 1 µM [5, 13]?
**A.** 0%

**Q.** What about the inhibition of growth at 5 µM [5, 13] of the same compound?
**A.** 19%

**Q.** And the inhibition of growth at 20 µM [5, 13]?
**A.** 28%

**Q.** What about the inhibition of growth at 40 µM [5, 13] of the same compound?
**A.** 31%

**Q.** And the inhibition of growth at 1 µM ([6]; 72 h, age of the fungus 3 days)?
**A.** 18%

**Q.** What about the inhibition of growth at 5 µM ([6]; 72 h, age of the fungus 3 days) of the same compound?
**A.** 27%

**Q.** And the inhibition of growth at 15 µM ([6]; 72 h, age of the fungus 3 days)?
**A.** 30%

**Q.** And the inhibition of growth ([6]; 72 h, age of the fungus 3 days)?
**A.** 33%

**Q.** And the inhibition of growth at 40 µM ([6]; 72 h, age of the fungus 3 days)?
**A.** 44%

**Q.** What about the EC50 ([6]; 120 h, day 5, read-out: EC50, µg/mL at Day 5, P. cactorum) of the same compound?
**A.** 18.2 µg/mL

**Q.** And the inhibition of growth at 1 µM [6, 14]?
**A.** 26%

**Q.** And the inhibition of growth at 5 µM [6, 14]?
**A.** 35%

**Q.** And the inhibition of growth at 15 µM [6, 14]?
**A.** 38%

**Q.** And the inhibition of growth [6, 14]?
**A.** 43%

**Q.** And the inhibition of growth at 40 µM [6, 14]?
**A.** 50%

**Q.** What about the inhibition of growth at 1 µM [6, 15] of the same compound?
**A.** 11%

**Q.** And the inhibition of growth at 5 µM [6, 15]?
**A.** 24%

**Q.** And the inhibition of growth at 15 µM [6, 15]?
**A.** 29%

**Q.** What about the inhibition of growth [6, 15] of the same compound?
**A.** 31%

**Q.** What about the inhibition of growth at 40 µM [6, 15] of the same compound?
**A.** 44%

**Q.** What about the inhibition of growth at 1 µM [6, 16] of the same compound?
**A.** 6%

**Q.** What about the inhibition of growth at 5 µM [6, 16] of the same compound?
**A.** 16%

**Q.** And the inhibition of growth at 15 µM [6, 16]?
**A.** 19%

**Q.** What about the inhibition of growth [6, 16] of the same compound?
**A.** 26%

**Q.** What about the inhibition of growth at 40 µM [6, 16] of the same compound?
**A.** 39%

**Q.** What about the melting point of the same compound?
**A.** 152 to 153 °C

**Q.** What about the zone of inhibition at 2000 µM ([7]; B610, 2 mM/L, average of 3 experiments, read-out: width of the inhibition zone (mm), X. campestris) of the same compound?
**A.** 3 mm

**Q.** What about the zone of inhibition at 2000 µM ([7]; B610, Table S3, 2 mM/L, read-out: Inhibition zone width (mm), not less) of the same compound?
**A.** ≥ 3 mm

**Q.** What about the zone of inhibition at 2000 µM ([8]; 36 h, 2 mM solutions, dependent on the test system used, read-out: inhibition zone width (mm), range over the test systems) of the same compound?
**A.** 2.5 to 4 mm

**Q.** What about the “bactericidal activity” value ([8]; Table S2) of the same compound?
**A.** moderate bactericidal activity

From article PMC10607100, “Anticancer and Antiphytopathogenic Activity of Fluorinated Isatins and Their Water-Soluble Hydrazone Derivatives” (International Journal of Molecular Sciences, 2023)
